Values of other authors, collected in US12533344B2, “Formulations” (Glaukos Corporation, priority 2021, dated 2026).
Where two headings read alike, the source gives them in different places. Blank lines part the entries; values can stand above or below the molecule they belong to.

Conditions: for Effective Buffering Range: pH range

Molecule: O=C1O[C@H]([C@@H](O)CO)C(O)=C1O [Ascorbic acid]
- Effective Buffering Range: 3.3-6.2

Molecule: Citrate buffer
- Effective Buffering Range (listed as Citrate buffer-pKa1): 2.2-5.0
- Effective Buffering Range (listed as Citrate buffer-pKa2): 3.0-6.2

Other lines, results leading:

- pKa (buffers and stabilizers of Table 1): 4.60
- Effective Buffering Range: 3.3-6.0
Molecule: O=C(O)CCCCCCCC(=O)O [Azeliac acid]

- Effective Buffering Range: 2.8-5.3
Molecule: CC(O)C(=O)O (stereo not shown) [Lactic acid]

- pKa of pilocarpine: ~6.5
Molecule: CC[C@@H]1C(=O)OC[C@@H]1Cc1cncn1C [pilocarpine, reference compound]
